Test system: Influenza B virus
Assay: microbe, parasite or virus in culture
Conditions: B/Harbin/07/94, MDCK, 72 h
Description: Antiviral activity against Influenza B virus (B/Harbin/07/94) infected in MDCK cells assessed as reduction of virus-induced cytopathic effect after 72 hrs by MTT assay

| Structure (SMILES) | EC50 [nM] |
| --- | --- |
| CC(=O)N[C@H]1[C@H]([C@H](OC(=O)NCCCCCCCn2cc(CCCCNC(=O)O[C@@H]([C@@H]3OC(C(=O)O)=C[C@H](NC(=N)N)[C@H]3NC(C)=O)[C@H](O)CO)nn2)[C@H](O)CO)OC(C(=O)O)=C[C@@H]1NC(=N)N | 0.32 |
| CC(=O)N[C@H]1[C@H]([C@H](OC(=O)NCCCCCCCCc2cn(CCCCCCCNC(=O)O[C@@H]([C@@H]3OC(C(=O)O)=C[C@H](NC(=N)N)[C@H]3NC(C)=O)[C@H](O)CO)nn2)[C@H](O)CO)OC(C(=O)O)=C[C@@H]1NC(=N)N | 0.39 |
| CC(=O)N[C@H]1[C@H]([C@H](OC(=O)NCCCn2cc(CCCc3cn(CCCNC(=O)O[C@@H]([C@@H]4OC(C(=O)O)=C[C@H](NC(=N)N)[C@H]4NC(C)=O)[C@H](O)CO)nn3)nn2)[C@H](O)CO)OC(C(=O)O)=C[C@@H]1NC(=N)N | 0.65 |
| CC(=O)N[C@H]1[C@H]([C@H](OC(=O)NCCCCCn2cc(CCCCCc3cn(CCCCCNC(=O)O[C@@H]([C@@H]4OC(C(=O)O)=C[C@H](NC(=N)N)[C@H]4NC(C)=O)[C@H](O)CO)nn3)nn2)[C@H](O)CO)OC(C(=O)O)=C[C@@H]1NC(=N)N | 0.88 |
| CC(=O)N[C@H]1[C@H]([C@H](OC(=O)NCCCn2cc(CCNC(=O)O[C@@H]([C@@H]3OC(C(=O)O)=C[C@H](NC(=N)N)[C@H]3NC(C)=O)[C@H](O)CO)nn2)[C@H](O)CO)OC(C(=O)O)=C[C@@H]1NC(=N)N | 0.51 |
| CC(=O)N[C@H]1[C@H]([C@H](OC(=O)NCCCCc2cn(CCCNC(=O)O[C@@H]([C@@H]3OC(C(=O)O)=C[C@H](NC(=N)N)[C@H]3NC(C)=O)[C@H](O)CO)nn2)[C@H](O)CO)OC(C(=O)O)=C[C@@H]1NC(=N)N | 0.43 |
| CC(=O)N[C@H]1[C@H]([C@H](OC(=O)NCCCCCn2cc(CCCCNC(=O)O[C@@H]([C@@H]3OC(C(=O)O)=C[C@H](NC(=N)N)[C@H]3NC(C)=O)[C@H](O)CO)nn2)[C@H](O)CO)OC(C(=O)O)=C[C@@H]1NC(=N)N | 0.79 |
| CCOC(=O)C1=C[C@@H](OC(CC)CC)[C@H](NC(C)=O)[C@@H](N)C1 [OSELTAMIVIR] | 583 |
| CC(=O)N[C@H]1[C@H]([C@H](O)[C@H](O)CO)OC(C(=O)O)=C[C@@H]1NC(=N)N [ZANAMIVIR] | 149 |
